Source: patent publication US20220193242A1, “IMMUNOPHILIN-DEPENDENT INHIBITORS AND USES THEREOF” (The Regents of the University of California, priority 2019, published 2022)

Experiments:
[1] = system: LRRK2; assay: Inhibition of LRRK2 autophosphorylation; format: cell-based
Procedure: (§1) FIGS. 4A-4C. A general approach to construct FKBP-dependent, programmable kinase inhibitors. (FIG. 4A) Structures of lapatinib and FK-lapatinib, their effects on HER2 signaling and the growth inhibition of SK-BR-3 cells by these compounds. (FIGS. 4B-4C) Structures of GNE7915 and FK-GNE7915 and their inhibition of LRRK2 autophosphorylation.
FIG. 30. […] 3T3 or RAW264.7 cells (MJFF cell line), 2 h treatment.
(§2) We extended our design strategy and prepared two other bispecific ligands based on the structures of an FDA-approved HER2/EGFR inhibitor (lapatinib) and an LRRK2 inhibitor in clinical development (GNE7915). […] With the three case studies presented above, we cautiously anticipate that the same workflow could be applied to convert other kinase inhibitors into FKBP-dependent formats with similar if not better cellular activities.

[2] = molecular target: T1, Src and HA-FKBP12 (Homo sapiens, UniProt P12931+P62942); assay: Immunoprecipitation of HA-FKBP12 from Jurkat cell lysate; format: binding; settings: Jurkat cell lysate 1 mg/mL, 1 μM compound
T1 construct: endogenous in cells; host or cells: Jurkat cell lysate (Src); HA-FKBP12 added as purified protein
T1 sequence (P12931 2-536 limits assumed): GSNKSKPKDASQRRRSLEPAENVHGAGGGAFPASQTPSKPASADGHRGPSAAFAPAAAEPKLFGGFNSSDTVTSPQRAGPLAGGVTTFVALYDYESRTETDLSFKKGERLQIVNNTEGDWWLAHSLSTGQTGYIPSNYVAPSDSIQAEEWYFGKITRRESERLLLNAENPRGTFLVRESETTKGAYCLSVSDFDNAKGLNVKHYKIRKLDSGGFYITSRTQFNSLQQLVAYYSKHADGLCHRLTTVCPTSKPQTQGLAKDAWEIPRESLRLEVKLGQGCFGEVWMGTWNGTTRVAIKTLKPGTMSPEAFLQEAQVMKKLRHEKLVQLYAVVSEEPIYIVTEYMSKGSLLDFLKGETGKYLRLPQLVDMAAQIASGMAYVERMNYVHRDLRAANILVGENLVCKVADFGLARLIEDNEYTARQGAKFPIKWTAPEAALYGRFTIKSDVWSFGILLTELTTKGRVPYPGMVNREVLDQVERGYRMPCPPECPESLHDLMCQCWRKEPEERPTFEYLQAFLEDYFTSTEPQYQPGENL
T1 sequence (P62942 whole entry): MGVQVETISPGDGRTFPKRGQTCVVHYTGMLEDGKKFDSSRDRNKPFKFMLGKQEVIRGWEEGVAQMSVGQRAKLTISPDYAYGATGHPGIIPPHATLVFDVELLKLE
Procedure: FIGS. 2A-2C. […] Fractions of 0.5 mL were collected and analyzed by SDS-PAGE.
FIG. 23. […] Pulldown was performed with Jurkat cell lysate (1 mg/mL, 200 μL), supplemented with 2 μg HA-FKBP12. Pulldown/wash buffer: 50 mM Tris 7.4, 120 mM NaCl, 1% NP-40, 1 mM EDTA, phosphatase/protease inhibitors.

[3] = molecular target: T2, FKBP12 (Homo sapiens, UniProt P62942); assay: Fluorescence polarization assay of binding to FKBP12
T2 sequence (P62942 whole entry): as above

[4] = system: TCR signaling (phospho-tyrosine) in Jurkat cells; assay: CD3 crosslinking (OKT3) triggered T cell activation in Jurkat cells, Western blot; format: cell-based
Procedure: (§3) FIGS. 3A-3D. […] The phosphotyrosine levels were monitored by Western blot at various time points over 24 h.
FIG. 25. […] Jurkat cells (1×10^6/mL) were treated with the indicated drugs for 1 h, then stimulated with anti-CD3 mAb OKT3 (5 μg/mL) for 5 min. before lysis and analysis.

[5] = system: phosphotyrosine levels in Jurkat cells; assay: Drug washout, phosphotyrosine levels over 24 h in Jurkat cells; format: cell-based; settings: 100 nM for 1 h
Procedure: as §3
FIG. 26. […] Jurkat cells (1×10^6/mL) were treated with 100 nM of the indicated compounds for 1 h, then were washed 3 times with PBS and resuspended in culture media. Samples were taken at the indicated time points and lysed immediately.

[6] = system: K562; settings: K562, 72 h treatment
Procedure: FIG. 27. […] K562 (seeding density 5×10^4/mL) cells, 72 h treatment.

[7] = molecular target: T2, FKBP12; assay: FKBP12 dependence of activity (FIG. 19)
[8] = molecular target: HRAS, CypA, Sos (Homo sapiens, UniProt P01112+P62937, M72C); assay: HRAS.CypA ternary complex and Sos-mediated nucleotide exchange; format: biochemical
Procedure: FIG. 44. […] Assay conditions: 1 μM Ras.GDP, 1 μM Mant-GDP, 20 mM EPES 7.5, 150 mM NaCl, 10 mM EDTA or 1 μM Sos. 95A is synonymous to 06-031.

[9] = system: Ras.Raf binding; assay: Ras.Raf binding pulldown; settings: HRAS.CypA ternary complex
Procedure: FIG. 45. […] Pulldown conditions: 100 nM KRAS, 50 μg/mL BSA, 20 mM HEPES 7.5, 150 mM NaCl, 5 mM MgCl2, 1 mM […], 1% NP-40. GppNHp loaded proteins were prepared by EDTA-mediated nucleotide exchange.

[10] = molecular target: KRAS and CypA (Homo sapiens, UniProt P01116+P62937, G12C); assay: Melting curve of the KRAS.CypA complex; format: binding
[11] = system: 139 kinases captured by the probe XO44; assay: In-cell kinase occupancy profiling with chemoproteomic probe XO44 in Jurkat cells; format: cell-based; settings: 100 nM, among 139 kinases captured by XO44, Jurkat cells
[12] = system: HER2; assay: HER2 signaling in SK-BR-3 cells; format: cell-based; settings: 1 μM
From the text: as §1, §2

[13] = system: SK-BR-3 cells; assay: Growth inhibition of SK-BR-3 cells; format: cell-based
From the text: as §1, §2

CCNc1nc(Nc2cc(F)c(C(=O)N3CCN(C(=O)CCC[C@@H]4/C=C(\C)C[C@H](C)C[C@H](OC)[C@H]5O[C@@](O)(C(=O)C(=O)N6CCCC[C@H]6C(=O)O[C@H](/C(C)=C/[C@@H]6CC[C@@H](O)[C@H](OC)C6)[C@H](C)[C@@H](O)CC4=O)[C@H](C)C[C@@H]5OC)CC3)cc2OC)ncc1C(F)(F)F [FK-GNE7915]
inhibition of LRRK2 autophosphorylation compared to parent [1]: more efficacious than its parent molecule GNE7915

C=CC[C@@H]1/C=C(\C)C[C@H](C)C[C@H](OC)[C@H]2O[C@@](O)(C(=O)C(=O)N3CCCC[C@H]3C(=O)O[C@H](/C(C)=C/[C@@H]3CC[C@@H](O)[C@H](OC)C3)[C@H](C)[C@@H](O)CC1=O)[C@H](C)C[C@@H]2OC [FK506, tacrolimus, reference compound]
co-immunoprecipitation of Src with HA-FKBP12 [2]: not

CO[C@H]1C[C@@H](C)C/C(C)=C/[C@@H](CCCC(=O)N2CCN(c3cc(Nc4ncc(C(=O)Nc5c(C)cccc5Cl)s4)nc(C)n3)CC2)C(=O)C[C@H](O)[C@@H](C)[C@@H](/C(C)=C/[C@@H]2CC[C@@H](O)[C@H](OC)C2)OC(=O)[C@@H]2CCCCN2C(=O)C(=O)[C@]2(O)O[C@H]1[C@@H](OC)C[C@H]2C [FK506-Dasatinib]
Kd [3]: 23 nM

CO[C@H]1C[C@@H](C)C/C(C)=C/[C@@H](CCCC(=O)N2CCN(c3cc(Nc4ncc(C(=O)Nc5c(C)cccc5Cl)s4)nc(C)n3)CC2)C(=O)C[C@H](O)[C@@H](C)[C@@H](/C(C)=C/[C@@H]2CC[C@@H](O)[C@H](OC)C2)OC(=O)[C@@H]2CCCCN2C(=O)C(=O)[C@]2(O)O[C@H]1[C@@H](OC)C[C@H]2C [Compound 05-022]
co-immunoprecipitation of Src with HA-FKBP12 [2]: form a stable ternary complex | inhibition of phosphotyrosine signal [4]: potently inhibits | durability of effect after washout ([5]; washed 3 times with PBS): durable after washout | growth inhibition [6]: FKBP-dependent growth inhibition | dependence of activity on FKBP12 [7]: dependent on FKBP12

C=CC(=O)Nc1cc(Cl)cc(NC(=O)c2cnn(-c3ccc(OCC(=O)N4CCN(C(=O)CCC[C@@H](C)[C@@H](O)[C@H]5C(=O)N[C@@H](CC)C(=O)N(C)CC(=O)N(C)[C@@H](CC(C)C)C(=O)N[C@@H](C(C)C)C(=O)N(C)[C@@H](CC(C)C)C(=O)N[C@@H](C)C(=O)N[C@H](C)C(=O)N(C)[C@@H](CC(C)C)C(=O)N(C)[C@@H](CC(C)C)C(=O)N(C)[C@@H](C(C)C)C(=O)N5C)CC4)cc3)c2C(F)(F)F)c1 [Compound 08-058]
Sos-mediated nucleotide exchange ([8]; 1 μM Ras.GDP, 1 μM Mant-GDP, 1 μM Sos): inhibits Sos-mediated nucleotide exchange | ternary complex formation ([8]; HRAS, CypA): forms a ternary complex | Ras.Raf binding [9]: does not seem to impair Ras.Raf binding

C=CC(=O)N1CCN(c2nc(NCCC(=O)NCCNC(=O)CCC[C@@H](C)[C@@H](O)[C@H]3C(=O)N[C@@H](CC)C(=O)N(C)CC(=O)N(C)[C@@H](CC(C)C)C(=O)N[C@@H](C(C)C)C(=O)N(C)[C@@H](CC(C)C)C(=O)N[C@@H](C)C(=O)N[C@H](C)C(=O)N(C)[C@@H](CC(C)C)C(=O)N(C)[C@@H](CC(C)C)C(=O)N(C)[C@@H](C(C)C)C(=O)N3C)nc3c(F)c(-c4c(O)cccc4F)c(Cl)cc23)CC1 [Compound 07-014]
melting curve of the complex [10]: 2-stage melting curve

Cc1nc(Nc2ncc(C(=O)Nc3c(C)cccc3Cl)s2)cc(N2CCN(CCO)CC2)n1 [dasatinib, reference compound]
number of kinases inhibited >70% [11]: 9 | time after drug washout at which phosphotyrosine signal is restored ([5]; then drug removed): ≤ 1 h

CO[C@H]1C[C@@H](C)C/C(C)=C/[C@@H](CCCC(=O)N2CCN(Cc3ccc(-c4ccc5ncnc(Nc6ccc(OCc7cccc(F)c7)c(Cl)c6)c5c4)o3)CC2)C(=O)C[C@H](O)[C@@H](C)[C@@H](/C(C)=C/[C@@H]2CC[C@@H](O)[C@H](OC)C2)OC(=O)[C@@H]2CCCCN2C(=O)C(=O)[C@]2(O)O[C@H]1[C@@H](OC)C[C@H]2C [FK-lapatinib]
HER2 signaling [12]: suppressed | IC50 of growth inhibition [13]: comparable to that of lapatinib

CCNc1nc(Nc2cc(F)c(C(=O)N3CCN(C(=O)CCC[C@@H]4/C=C(\C)C[C@H](C)C[C@H](OC)[C@H]5O[C@@](O)(C(=O)C(=O)N6CCCC[C@H]6C(=O)O[C@H](/C(C)=C/[C@@H]6CC[C@@H](O)[C@H](OC)C6)[C@H](C)[C@@H](O)CC4=O)[C@H](C)C[C@@H]5OC)CC3)cc2OC)ncc1C(F)(F)F [Compound 08-074]
cellular activity compared to parent compound ([1]; 3T3 or RAW264.7 cells, 2 h treatment): more potent cellular activity than its parent compound GNE-7915
